Measurements: patent US20140357512A1, “HISTONE DEACETYLASE (HDAC) BIOMARKERS IN MULTIPLE MYELOMA” (priority 2013, published 2014)

System: human myeloma cell line MM.1S
Assay: Biological pathway analysis of SILAC biomarker peptides against pathway database (broadinstitute gsea)
Procedure: Once biomarker peptides are identified for a specific drug by the SILAC method, the biomarker peptides may be compared to peptides/proteins in a biological pathway database in order to identify major biological pathways or functions implicated by the drug's action. A preferred pathway analysis website is at www dot broadinstitute dot org/gsea/index dot jsp.
This example describes the biological pathway analysis that was performed on each of Compound A, Compound B, and Tubastatin A.
Once biomarker peptides were identified for a specific drug (either Compound A, Compound B, or Tubastatin A) by the SILAC method in Example 1, the biomarker peptides were compared to peptides/proteins in the biological pathway database at www dot broadinstitute dot org/gsea/index dot jsp in order to identify major biological pathways or functions implicated by the drug's action.

With O=C(NO)c1cnc(NC2(c3cccc(F)c3)CCCCC2)nc1 [Compound B, 2-((1-(3-fluorophenyl)cyclohexyl)amino)-N-hydroxypyrimidine-5-carboxamide] the “Observed: number of genes in pathway REACTOME_PACKAGING_OF_TELOMERE_ENDS” value (Pathway_size 48) was 15, the “Ratio observed/pathway size, REACTOME_PACKAGING_OF_TELOMERE_ENDS” value (Pathway_size 48) was 0.3125 and the “Observed: number of genes in pathway REACTOME_RNA_POL_I_PROMOTER_OPENING” value (Pathway_size 61) was 15. For the same molecule, the “Ratio observed/pathway size, REACTOME_RNA_POL_I_PROMOTER_OPENING” value (Pathway_size 61) was 0.2459, the “Observed: number of genes in pathway REACTOME_DEPOSITION_OF_NEW_CENPA_CONTAINING_NUCLEOSOMES_AT_THE_CENTROMERE” value (Pathway_size 64) was 15 and the “Ratio observed/pathway size, REACTOME_DEPOSITION_OF_NEW_CENPA_CONTAINING_NUCLEOSOMES_AT_THE_CENTROMERE” value (Pathway_size 64) was 0.2344. For the same molecule, the “Observed: number of genes in pathway REACTOME_MEIOTIC_SYNAPSIS” value (Pathway_size 71) was 16, the “Ratio observed/pathway size, REACTOME_MEIOTIC_SYNAPSIS” value (Pathway_size 71) was 0.2254 and the “Observed: number of genes in pathway MORF_PPP2CA” value (Pathway_size 127) was 18. For the same molecule, the “Ratio observed/pathway size, MORF_PPP2CA” value (Pathway_size 127) was 0.1417, the “Observed: number of genes in pathway MORF_NME2” value (Pathway_size 154) was 19 and the “Ratio observed/pathway size, MORF_NME2” value (Pathway_size 154) was 0.1234. For the same molecule, the “Observed: number of genes in pathway MORF_NPM1” value (Pathway_size 162) was 20, the “Ratio observed/pathway size, MORF_NPM1” value (Pathway_size 162) was 0.1235 and the “Observed: number of genes in pathway MORF_CTBP1” value (Pathway_size 168) was 24. The “Ratio observed/pathway size, MORF_CTBP1” value (Pathway_size 168) was 0.1429, the “Observed: number of genes in pathway MORF_G22P1” value (Pathway_size 171) was 23 and the “Ratio observed/pathway size, MORF_G22P1” value (Pathway_size 171) was 0.1345. For the same molecule, the “Observed: number of genes in pathway MORF_RAD21” value (Pathway_size 182) was 20, the “Ratio observed/pathway size, MORF_RAD21” value (Pathway_size 182) was 0.1099 and the “Observed: number of genes in pathway PENG_LEUCINE_DEPRIVATION_DN” value (Pathway_size 187) was 21. For the same molecule, the “Ratio observed/pathway size, PENG_LEUCINE_DEPRIVATION_DN” value (Pathway_size 187) was 0.1123, the “Observed: number of genes in pathway MORF_DAP3” value (Pathway_size 193) was 21 and the “Ratio observed/pathway size, MORF_DAP3” value (Pathway_size 193) was 0.1088. For the same molecule, the “Observed: number of genes in pathway MORF_ANP32B” value (Pathway_size 197) was 27, the “Ratio observed/pathway size, MORF_ANP32B” value (Pathway_size 197) was 0.1371 and the “Observed: number of genes in pathway MORF_SKP1A” value (Pathway_size 202) was 22. For the same molecule, the “Ratio observed/pathway size, MORF_SKP1A” value (Pathway_size 202) was 0.1089, the “Observed: number of genes in pathway MORF_AATF” value (Pathway_size 205) was 22 and the “Ratio observed/pathway size, MORF_AATF” value (Pathway_size 205) was 0.1073. For the same molecule, the “Observed: number of genes in pathway MORF_ACP1” value (Pathway_size 210) was 22, the “Ratio observed/pathway size, MORF_ACP1” value (Pathway_size 210) was 0.1048 and the “Observed: number of genes in pathway MORF_XRCC5” value (Pathway_size 234) was 26. The “Ratio observed/pathway size, MORF_XRCC5” value (Pathway_size 234) was 0.1111, the “Observed: number of genes in pathway MORF_UBE2I” value (Pathway_size 238) was 31 and the “Ratio observed/pathway size, MORF_UBE2I” value (Pathway_size 238) was 0.1303. The “Observed: number of genes in pathway MORF_EIF3S2” value (Pathway_size 244) was 25, the “Ratio observed/pathway size, MORF_EIF3S2” value (Pathway_size 244) was 0.1025 and the “Observed: number of genes in pathway MORF_HDAC1” value (Pathway_size 254) was 30. For the same molecule, the “Ratio observed/pathway size, MORF_HDAC1” value (Pathway_size 254) was 0.1181, the “Observed: number of genes in pathway MORF_DEK” value (Pathway_size 262) was 29 and the “Ratio observed/pathway size, MORF_DEK” value (Pathway_size 262) was 0.1107. The “Observed: number of genes in pathway MORF_RAN” value (Pathway_size 268) was 33, the “Ratio observed/pathway size, MORF_RAN” value (Pathway_size 268) was 0.1231 and the “Observed: number of genes in pathway MORF_BUB3” value (Pathway_size 276) was 27. The “Ratio observed/pathway size, MORF_BUB3” value (Pathway_size 276) was 0.09783, the “Observed: number of genes in pathway MORF_SOD1” value (Pathway_size 277) was 23 and the “Ratio observed/pathway size, MORF_SOD1” value (Pathway_size 277) was 0.08303. The “Observed: number of genes in pathway MORF_CSNK2B” value (Pathway_size 287) was 27, the “Ratio observed/pathway size, MORF_CSNK2B” value (Pathway_size 287) was 0.09408 and the “Observed: number of genes in pathway MORF_GNB1” value (Pathway_size 303) was 30. For the same molecule, the “Ratio observed/pathway size, MORF_GNB1” value (Pathway_size 303) was 0.09901, the “Observed: number of genes in pathway PENG_GLUTAMINE_DEPRIVATION_DN” value (Pathway_size 337) was 25 and the “Ratio observed/pathway size, PENG_GLUTAMINE_DEPRIVATION_DN” value (Pathway_size 337) was 0.07418. For the same molecule, the “Observed: number of genes in pathway MORF_RAD23A” value (Pathway_size 345) was 34, the “Ratio observed/pathway size, MORF_RAD23A” value (Pathway_size 345) was 0.09855 and the “Observed: number of genes in pathway HSIAO_HOUSEKEEPING_GENES” value (Pathway_size 389) was 36. The “Ratio observed/pathway size, HSIAO_HOUSEKEEPING_GENES” value (Pathway_size 389) was 0.09255, the “Observed: number of genes in pathway REACTOME_CELL_CYCLE” value (Pathway_size 412) was 29 and the “Ratio observed/pathway size, REACTOME_CELL_CYCLE” value (Pathway_size 412) was 0.07039. The “Observed: number of genes in pathway CASORELLI_ACUTE_PROMYELOCYTIC_LEUKEMIA_DN” value (Pathway_size 662) was 31, the “Ratio observed/pathway size, CASORELLI_ACUTE_PROMYELOCYTIC_LEUKEMIA_DN” value (Pathway_size 662) was 0.04683 and the “Observed: number of genes in pathway KIM_BIPOLAR_DISORDER_OLIGODENDROCYTE_DENSITY_CORR_UP” value (Pathway_size 681) was 31. For the same molecule, the “Ratio observed/pathway size, KIM_BIPOLAR_DISORDER_OLIGODENDROCYTE_DENSITY_CORR_UP” value (Pathway_size 681) was 0.04552, the “Observed: number of genes in pathway BENPORATH_MYC_MAX_TARGETS” value (Pathway_size 775) was 35 and the “Ratio observed/pathway size, BENPORATH_MYC_MAX_TARGETS” value (Pathway_size 775) was 0.04516. The “Observed: number of genes in pathway PUJANA_CHEK2_PCC_NETWORK” value (Pathway_size 778) was 39, the “Ratio observed/pathway size, PUJANA_CHEK2_PCC_NETWORK” value (Pathway_size 778) was 0.05013 and the “Observed: number of genes in pathway GRADE_COLON_CANCER_UP” value (Pathway_size 870) was 40. The “Ratio observed/pathway size, GRADE_COLON_CANCER_UP” value (Pathway_size 870) was 0.04598, the “Observed: number of genes in pathway MACROMOLECULAR_COMPLEX” value (Pathway_size 945) was 34 and the “Ratio observed/pathway size, MACROMOLECULAR_COMPLEX” value (Pathway_size 945) was 0.03598. For the same molecule, the “Observed: number of genes in pathway LOPEZ_MBD_TARGETS” value (Pathway_size 957) was 37, the “Ratio observed/pathway size, LOPEZ_MBD_TARGETS” value (Pathway_size 957) was 0.03866 and the “Observed: number of genes in pathway DANG_BOUND_BY_MYC” value (Pathway_size 1102) was 46. The “Ratio observed/pathway size, DANG_BOUND_BY_MYC” value (Pathway_size 1102) was 0.04174, the “Observed: number of genes in pathway INTRACELLULAR_ORGANELLE_PART” value (Pathway_size 1192) was 47 and the “Ratio observed/pathway size, INTRACELLULAR_ORGANELLE_PART” value (Pathway_size 1192) was 0.03943. For the same molecule, the “Observed: number of genes in pathway ORGANELLE_PART” value (Pathway_size 1197) was 47, the “Ratio observed/pathway size, ORGANELLE_PART” value (Pathway_size 1197) was 0.03927 and the “Observed: number of genes in pathway BLALOCK_ALZHEIMERS_DISEASE_DN” value (Pathway_size 1237) was 49. For the same molecule, the “Ratio observed/pathway size, BLALOCK_ALZHEIMERS_DISEASE_DN” value (Pathway_size 1237) was 0.03961, the “Observed: number of genes in pathway DODD_NASOPHARYNGEAL_CARCINOMA_DN” value (Pathway_size 1368) was 39 and the “Ratio observed/pathway size, DODD_NASOPHARYNGEAL_CARCINOMA_DN” value (Pathway_size 1368) was 0.02851. The “Observed: number of genes in pathway DIAZ_CHRONIC_MEYLOGENOUS_LEUKEMIA_UP” value (Pathway_size 1382) was 58, the “Ratio observed/pathway size, DIAZ_CHRONIC_MEYLOGENOUS_LEUKEMIA_UP” value (Pathway_size 1382) was 0.04197 and the “Observed: number of genes in pathway NUCLEUS” value (Pathway_size 1428) was 40. For the same molecule, the “Ratio observed/pathway size, NUCLEUS” value (Pathway_size 1428) was 0.02801, the “Observed: number of genes in pathway PUJANA_ATM_PCC_NETWORK” value (Pathway_size 1440) was 41 and the “Ratio observed/pathway size, PUJANA_ATM_PCC_NETWORK” value (Pathway_size 1440) was 0.02847. The “Observed: number of genes in pathway PUJANA_BRCA1_PCC_NETWORK” value (Pathway_size 1651) was 68, the “Ratio observed/pathway size, PUJANA_BRCA1_PCC_NETWORK” value (Pathway_size 1651) was 0.04119 and the “Observed: number of genes in pathway GRAESSMANN_APOPTOSIS_BY_DOXORUBICIN_DN” value (Pathway_size 1781) was 44. The “Ratio observed/pathway size, […]_APOPTOSIS_BY_DOXORUBICIN_DN” value (Pathway_size 1781) was 0.02471, the “Observed: number of genes in pathway PILON_KLF1_TARGETS_DN” value (Pathway_size 1972) was 45 and the “Ratio observed/pathway size, PILON_KLF1_TARGETS_DN” value (Pathway_size 1972) was 0.02282. The “Observed: number of genes in pathway CYTOPLASM” value (Pathway_size 2130) was 50, the “Ratio observed/pathway size, CYTOPLASM” value (Pathway_size 2130) was 0.02347 and the “Observed: number of genes in pathway GGGCGGR_V$SP1_Q6” value (Pathway_size 2939) was 53. The “Ratio observed/pathway size, GGGCGGR_V$SP1_Q6” value (Pathway_size 2939) was 0.01803.
